Assay results from paper PMC9811530 (Experimental and Clinical Endocrinology & Diabetes, 2022).
“Also recorded” adds a separate entry of the source. Read-outs that look alike come from different tables or passages of the source.

Assays:
[1] = type: in vivo, human; conditions: human, plasma, oral; for Tmax: t max, median (min–max); for Cmax: gMean (%gCV)
HPA axis = assay: Total urinary corticosteroid excretion; type: in vivo, human
[2] = tested on: hypothalamus-pituitary-adrenal (HPA) axis; assay: Hormones of the HPA axis; type: in vivo, human; conditions: all dose groups, during treatment
Metabolic parameters = type: in vivo, human
[3] = In vitro plasma protein binding; type: in vitro ADME; conditions: internal communication, data not shown
[4] = In vitro blood cell partitioning; type: in vitro ADME; conditions: 10 and 100 nmol/L, internal communication, data not shown
[5] = human, in vivo
[6] = cited from earlier work
[7] = BI 187004 concentration in subcutaneous adipose tissue biopsies; conditions: gMean (%gCV); for BI 187004 AT Cday15: 24 h after last dose; for BI 187004 AT Cday2: immediately after second dose

N#Cc1ccc2c(c1)[C@H]1CCCN(C(=O)c3ccc4[nH]cnc4c3)[C@H]1C2 [BI 187004]
Tmax ([1]; 40 mg, SS, 40 mg, Day 14): 0.834 h
AUC ([1]; 80 mg): 58.8 µM·h
AUC(0-t) ([1]; 80 mg): 46.5 µM·h
Vd/F ([1]; 80 mg): 346 L
half-life ([1]; 80 mg): 60.3 h
Cmax ([1]; 80 mg, C max, 80 mg, Day 1): 4.32 µM
Cmax ([1]; 80 mg, C max,SS, 80 mg, Day 14): 4.93 µM
Tmax ([1]; 80 mg, 80 mg, Day 1): 0.834 h
Tmax ([1]; 80 mg, SS, 80 mg, Day 14): 1.25 h
AUC ([1]; 160 mg): 127 µM·h
AUC(0-t) ([1]; 160 mg): 106 µM·h
Vd/F ([1]; 160 mg): 230 L
half-life ([1]; 160 mg): 43.1 h
Cmax ([1]; 160 mg, C max, 160 mg, Day 1): 11.5 µM
Cmax ([1]; 160 mg, C max,SS, 160 mg, Day 14): 12.1 µM
Tmax ([1]; 160 mg, 160 mg, Day 1): 1 h
Tmax ([1]; 160 mg, SS, 160 mg, Day 14): 0.667 h
AUC ([1]; 240 mg): 145 µM·h
AUC(0-t) ([1]; 240 mg): 130 µM·h
Vd/F ([1]; 240 mg): 359 L
half-life ([1]; 240 mg): 51.5 h
Cmax ([1]; 240 mg, C max, 240 mg, Day 1): 14.6 µM
Cmax ([1]; 240 mg, C max,SS, 240 mg, Day 14): 15 µM
Tmax ([1]; 240 mg, 240 mg, Day 1): 1 h
Tmax ([1]; 240 mg, SS, 240 mg, Day 14): 0.667 h
AUC ([1]; 360 mg): 162 µM·h
AUC(0-t) ([1]; 360 mg): 140 µM·h
Vd/F ([1]; 360 mg): 1160 L
half-life ([1]; 360 mg): 124 h
Cmax ([1]; 360 mg, C max, 360 mg, Day 1): 14.3 µM
Cmax ([1]; 360 mg, C max,SS, 360 mg, Day 14): 15.5 µM
Tmax ([1]; 360 mg, 360 mg, Day 1): 1 h
Tmax ([1]; 360 mg, SS, 360 mg, Day 14): 1.5 h
total urinary corticosteroid excretion, % of baseline, range over dose groups (HPA axis; after 14 days of treatment): 176.2–253.5%
total urinary corticosteroid excretion increased to (HPA axis; highest dose-group value): 253.5%
increase in total urinary corticosteroid excretion (HPA axis; multiple doses, 14 days): 2.48 fold
mean ACTH levels [2]: increased but within the normal range
fasting plasma glucose over the treatment period (Metabolic parameters; 14 days): not affected
body weight (Metabolic parameters; baseline, day 15, end-of-trial): remained unchanged; also recorded: Changes in body weight could not be observed
plasma protein binding [3]: no increase in plasma protein binding down to 10 nmol/L
blood cell partitioning [4]: no difference in blood cell partitioning at low concentrations
general disorders and administration site conditions (AE, system organ class) [5]: 14.3%
drug-related AEs ([6]; SRD study, healthy volunteers): 16.7%
half-life ([6]; single dose 5 mg, healthy volunteers): 33.5 h
half-life ([6]; single dose 360 mg, healthy volunteers): 13.9 h
increase of total urinary corticosteroid excretion ([6]; single doses 2.5–360 mg): up to 2 fold
BI 187004 AT Cday15 ([7]; 10 mg): 45.5 (37.0) nmol/L
BI 187004 AT Cday2 ([7]; 10 mg): 34.5 (38.3) nmol/L
BI 187004 AT Cday15 ([7]; 20 mg): 66.1 (25.5) nmol/L
BI 187004 AT Cday2 ([7]; 20 mg): 51.8 (83.7) nmol/L
BI 187004 AT Cday15 ([7]; 40 mg): 74.2 (29.6) nmol/L
BI 187004 AT Cday2 ([7]; 40 mg): 142 (72.1) nmol/L
BI 187004 AT Cday15 ([7]; 80 mg): 140 (28.4) nmol/L
BI 187004 AT Cday2 ([7]; 80 mg): 142 (55.9) nmol/L
BI 187004 AT Cday15 ([7]; 160 mg): 238 (56.6) nmol/L
BI 187004 AT Cday2 ([7]; 160 mg): 518 (65.7) nmol/L
BI 187004 AT Cday15 ([7]; 240 mg): 245 (62.8) nmol/L
BI 187004 AT Cday2 ([7]; 240 mg): 872 (54.6) nmol/L
BI 187004 AT Cday15 ([7]; 360 mg): 454 (29.3) nmol/L
BI 187004 AT Cday2 ([7]; 360 mg): 925 (41.7) nmol/L
clinical laboratory evaluations and vital signs (Safety and tolerability; 10–360 mg over 14 days): no notable findings
hypoglycemic episodes (Safety and tolerability; 10–360 mg over 14 days): No hypoglycemic episodes were reported
intensity of AEs (Safety and tolerability; all dose groups): mild or moderate intensity
serious AE or death (Safety and tolerability; during the trial): No serious AE or death occurred
AE leading to discontinuation of treatment (Safety and tolerability; one patient, 360 mg, day 6, drug-related, moderate intensity): supraventricular tachycardia
pollakiuria (AE) (Safety and tolerability; total BI 187004 group (6 patients, all 80–360 mg)): 10.7%
gastrointestinal disorders (AE) (Safety and tolerability; total BI 187004 group (9 patients)): 16.1%
nervous system disorders (only disorder: headache) (Safety and tolerability; total BI 187004 group (11 patients)): 19.6%
frequency of patients reported with any AE (Safety and tolerability; total BI 187004 group (33 patients)): 58.9%
incidence of drug-related adverse events (Safety and tolerability; total BI 187004 group, 10–360 mg once daily over 14 days (n=29)): 51.8%
